target: IKZF2 (Helios) (Homo sapiens, UniProt Q96SW2+Q9UKS7); assay: Prolabel quantification of IKZF2 protein levels in 293GT cells; type: cell-based; settings: 24 h, Pro-label assay, 293GT cells, 10 μM, read-out: IKZF2 % protein reduction at 10 μM, 24 h
Sequence (Q9UKS7 whole entry): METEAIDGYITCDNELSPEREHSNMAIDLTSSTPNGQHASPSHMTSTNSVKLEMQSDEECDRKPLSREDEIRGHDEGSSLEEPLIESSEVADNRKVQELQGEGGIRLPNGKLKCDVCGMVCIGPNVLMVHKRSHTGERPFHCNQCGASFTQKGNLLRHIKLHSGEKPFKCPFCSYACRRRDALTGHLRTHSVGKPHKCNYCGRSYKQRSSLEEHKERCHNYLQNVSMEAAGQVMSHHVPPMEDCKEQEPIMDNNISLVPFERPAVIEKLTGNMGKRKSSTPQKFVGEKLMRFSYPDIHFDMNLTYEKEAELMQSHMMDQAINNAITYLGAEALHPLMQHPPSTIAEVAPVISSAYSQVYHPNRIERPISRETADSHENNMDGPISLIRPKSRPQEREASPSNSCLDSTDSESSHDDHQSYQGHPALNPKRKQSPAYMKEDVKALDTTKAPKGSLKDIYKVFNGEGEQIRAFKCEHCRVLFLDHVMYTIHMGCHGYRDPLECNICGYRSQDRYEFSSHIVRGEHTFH
Sequence (Q96SW2 whole entry): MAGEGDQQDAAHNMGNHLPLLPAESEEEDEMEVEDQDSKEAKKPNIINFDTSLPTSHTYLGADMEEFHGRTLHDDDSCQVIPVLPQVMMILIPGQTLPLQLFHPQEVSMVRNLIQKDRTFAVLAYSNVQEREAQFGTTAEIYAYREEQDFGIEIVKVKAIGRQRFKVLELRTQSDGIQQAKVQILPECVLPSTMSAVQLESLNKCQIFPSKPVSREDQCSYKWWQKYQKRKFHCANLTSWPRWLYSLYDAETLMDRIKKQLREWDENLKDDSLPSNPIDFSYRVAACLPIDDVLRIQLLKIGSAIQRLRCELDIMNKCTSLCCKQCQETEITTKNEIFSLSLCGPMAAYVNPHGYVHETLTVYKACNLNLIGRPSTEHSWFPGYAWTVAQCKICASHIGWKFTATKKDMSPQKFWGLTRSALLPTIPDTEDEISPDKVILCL
Sequence (Q16531 whole entry partner): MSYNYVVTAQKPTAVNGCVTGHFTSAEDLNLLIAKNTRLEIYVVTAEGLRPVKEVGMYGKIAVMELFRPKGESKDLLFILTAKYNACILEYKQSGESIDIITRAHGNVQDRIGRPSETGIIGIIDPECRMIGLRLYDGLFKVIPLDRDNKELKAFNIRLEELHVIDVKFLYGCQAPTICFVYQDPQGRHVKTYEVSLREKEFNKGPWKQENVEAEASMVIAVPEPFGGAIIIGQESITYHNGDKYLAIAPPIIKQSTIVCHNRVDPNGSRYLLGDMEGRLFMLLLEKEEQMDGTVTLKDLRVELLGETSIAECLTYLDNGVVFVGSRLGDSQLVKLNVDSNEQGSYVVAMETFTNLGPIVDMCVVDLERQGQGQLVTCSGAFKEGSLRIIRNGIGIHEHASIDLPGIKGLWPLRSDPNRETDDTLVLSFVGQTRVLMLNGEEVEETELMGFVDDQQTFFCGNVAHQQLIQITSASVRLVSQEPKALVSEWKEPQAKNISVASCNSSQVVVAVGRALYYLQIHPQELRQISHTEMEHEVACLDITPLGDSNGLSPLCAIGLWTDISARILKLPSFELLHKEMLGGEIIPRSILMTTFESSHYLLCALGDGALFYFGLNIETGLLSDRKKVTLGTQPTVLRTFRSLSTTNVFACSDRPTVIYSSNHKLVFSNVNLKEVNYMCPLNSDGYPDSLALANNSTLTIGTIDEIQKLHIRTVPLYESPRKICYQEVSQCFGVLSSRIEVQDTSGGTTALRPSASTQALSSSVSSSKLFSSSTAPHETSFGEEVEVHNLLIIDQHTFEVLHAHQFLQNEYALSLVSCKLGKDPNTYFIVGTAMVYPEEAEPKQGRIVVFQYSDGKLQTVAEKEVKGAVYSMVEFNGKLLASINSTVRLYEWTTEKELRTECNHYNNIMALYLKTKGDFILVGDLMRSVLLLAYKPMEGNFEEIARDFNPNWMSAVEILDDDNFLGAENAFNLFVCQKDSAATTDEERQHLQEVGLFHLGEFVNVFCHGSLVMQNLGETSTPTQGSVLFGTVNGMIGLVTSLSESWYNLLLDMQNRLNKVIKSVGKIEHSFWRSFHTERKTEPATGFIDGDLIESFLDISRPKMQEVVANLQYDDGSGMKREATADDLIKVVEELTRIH

| IKZF2 % protein reduction at 10 µM [%] | Structure (SMILES) |
| --- | --- |
| 92 | O=C1CCC(N2Cc3cc(O[C@H]4CCC[C@@H]4N4CC(Oc5ccccc5Cl)C4)ccc3C2=O)C(=O)N1 (stereo partly drawn) [I-177, 3-(5-(((1S,2S)-2-(3-(2-chlorophenoxy)azetidin-1-yl)cyclopentyl)oxy)-1-oxoisoindolin-2-yl)piperidine-2,6-dione] |
| 81 | CCN(C[C@H]1C[C@@H](OC)C1)[C@H]1CCC[C@@H]1Oc1ccc2c(c1)CN(C1CCC(=O)NC1=O)C2=O (stereo partly drawn) [I-180, 3-(5-(((1S,2S)-2-(ethyl(((1s,3R)-3-methoxycyclobutyl)methyl)amino)cyclopentyl)oxy)-1-oxoisoindolin-2-yl)piperidine-2,6-dione] |
| 39 | O=C1CCC(N2Cc3cc(O[C@H]4CCC[C@@H]4N4CCc5ncccc5C4)ccc3C2=O)C(=O)N1 (stereo partly drawn) [I-190, 3-(5-(((1S,2S)-2-(7,8-dihydro-1,6-naphthyridin-6(5H)-yl)cyclopentyl)oxy)-1-oxoisoindolin-2-yl)piperidine-2,6-dione] |
| 83 | CO[C@H]1CC[C@@H](CN[C@H]2CCC[C@@H]2Oc2ccc3c(c2)CN(C2CCC(=O)NC2=O)C3=O)CC1 (stereo partly drawn) [I-191, 3-(5-(((1S,2S)-2-((((1s,4R)-4-methoxycyclohexyl)methyl)amino)cyclopentyl)oxy)-1-oxoisoindolin-2-yl)piperidine-2,6-dione] |
| 68 | O=C1CCC(N2Cc3cc(O[C@H]4CCC[C@@H]4N4Cc5ccncc5C4)ccc3C2=O)C(=O)N1 (stereo partly drawn) [I-196, 3-(5-(((1S,2S)-2-(1,3-dihydro-2H-pyrrolo[3,4-c]pyridin-2-yl)cyclopentyl)oxy)-1-oxoisoindolin-2-yl)piperidine-2,6-dione] |
| 71 | CCN(C)[C@H]1c2ccccc2C[C@@H]1Oc1ccc2c(c1)CN(C1CCC(=O)NC1=O)C2=O (stereo partly drawn) [I-200, 3-(5-(((1S,2S)-1-(ethyl(methyl)amino)-2,3-dihydro-1H-inden-2-yl)oxy)-1-oxoisoindolin-2-yl)piperidine-2,6-dione] |
| 46 | CN(C)[C@H]1c2ccccc2C[C@@H]1Oc1ccc2c(c1)CN(C1CCC(=O)NC1=O)C2=O (stereo partly drawn) [I-201, 3-(5-(((1S,2S)-1-(dimethylamino)-2,3-dihydro-1H-inden-2-yl)oxy)-1-oxoisoindolin-2-yl)piperidine-2,6-dione] |
| 20 | N[C@H]1CCC[C@@H]1Oc1ccc2c(c1F)CN(C1CCC(=O)NC1=O)C2=O (stereo partly drawn) [I-213, 3-(5-(((1S,2S)-2-aminocyclopentyl)oxy)-4-fluoro-1-oxoisoindolin-2-yl)piperidine-2,6-dione] |
| 40 | CCN(CC)[C@H]1CCC[C@@H]1Oc1ccc2c(c1F)CN(C1CCC(=O)NC1=O)C2=O (stereo partly drawn) [I-214, 3-(5-(((1S,2S)-2-(diethylamino)cyclopentyl)oxy)-4-fluoro-1-oxoisoindolin-2-yl)piperidine-2,6-dione] |
| 30 | N[C@H]1CCC[C@@H]1Oc1cc2c(cc1F)C(=O)N(C1CCC(=O)NC1=O)C2 (stereo partly drawn) [I-215, 3-(5-(((1S,2S)-2-aminocyclopentyl)oxy)-6-fluoro-1-oxoisoindolin-2-yl)piperidine-2,6-dione] |
| 60 | CCN(CC)[C@H]1CCC[C@@H]1Oc1cc2c(cc1F)C(=O)N(C1CCC(=O)NC1=O)C2 (stereo partly drawn) [I-216, 3-(5-(((1S,2S)-2-(diethylamino)cyclopentyl)oxy)-6-fluoro-1-oxoisoindolin-2-yl)piperidine-2,6-dione] |

Second part, the compound before the results:

| Structure (SMILES) | IKZF2 % protein reduction at 10 µM [%] |
| --- | --- |
| COc1ccccc1OC1CN([C@H]2CCC[C@@H]2Oc2ccc3c(c2)CN(C2CCC(=O)NC2=O)C3=O)C1 (stereo partly drawn) [I-178, 3-(5-(((1S,2S)-2-(3-(2-methoxyphenoxy)azetidin-1-yl)cyclopentyl)oxy)-1-oxoisoindolin-2-yl)piperidine-2,6-dione] | 92 |
| O=C1CCC(N2Cc3cc(O[C@H]4CCC[C@@H]4NCC4CC(F)(F)C4)ccc3C2=O)C(=O)N1 (stereo partly drawn) [I-194, 3-(5-(((1S,2S)-2-(((3,3-difluorocyclobutyl)methyl)amino)cyclopentyl)oxy)-1-oxoisoindolin-2-yl)piperidine-2,6-dione] | 83 |

same assay, conditions: 24 h, read-out: IKZF2 % protein reduction at 10 μM, 24 h

| Structure (SMILES) | IKZF2 % protein reduction at 10 µM [%] |
| --- | --- |
| O=C1CCC(N2Cc3cc(O[C@H]4CCC[C@@H]4N4CCC(OCC5CC5)CC4)ccc3C2=O)C(=O)N1 (stereo partly drawn) [I-186, 3-(5-(((1S,2S)-2-(4-(cyclopropylmethoxy)piperidin-1-yl)cyclopentyl)oxy)-1-oxoisoindolin-2-yl)piperidine-2,6-dione] | 86 |
| CC(C)OC1CCN([C@H]2CCC[C@@H]2Oc2ccc3c(c2)CN(C2CCC(=O)NC2=O)C3=O)CC1 (stereo partly drawn) [I-187, 3-(5-(((1S,2S)-2-(4-isopropoxypiperidin-1-yl)cyclopentyl)oxy)-1-oxoisoindolin-2-yl)piperidine-2,6-dione] | 79 |
| O=C1CCC(N2Cc3cc(O[C@H]4CCC[C@@H]4N4C[C@@H]5[C@H](C4)[C@H]4CC[C@@H]5O4)ccc3C2=O)C(=O)N1 (stereo partly drawn) [I-188, 3-(5-(((1S,2S)-2-((3aR,4R,7S,7aS)-octahydro-2H-4,7-epoxyisoindol-2-yl)cyclopentyl)oxy)-1-oxoisoindolin-2-yl)piperidine-2,6-dione] | 70 |
| CCOC1CCN([C@H]2CCC[C@@H]2Oc2ccc3c(c2)CN(C2CCC(=O)NC2=O)C3=O)CC1 (stereo partly drawn) [I-189, 3-(5-(((1S,2S)-2-(4-ethoxypiperidin-1-yl)cyclopentyl)oxy)-1-oxoisoindolin-2-yl)piperidine-2,6-dione] | 70 |
| O=C1CCC(N2Cc3cc(O[C@H]4CCC[C@@H]4N4CCC(OC(F)F)CC4)ccc3C2=O)C(=O)N1 (stereo partly drawn) [I-195, 3-(5-(((1S,2S)-2-(4-(difluoromethoxy)piperidin-1-yl)cyclopentyl)oxy)-1-oxoisoindolin-2-yl)piperidine-2,6-dione] | 85 |
| N[C@H]1c2ccccc2C[C@@H]1Oc1ccc2c(c1)CN(C1CCC(=O)NC1=O)C2=O (stereo partly drawn) [I-197, 3-(5-(((1S,2S)-1-amino-2,3-dihydro-1H-inden-2-yl)oxy)-1-oxoisoindolin-2-yl)piperidine-2,6-dione] | 68 |
| CCN[C@H]1c2ccccc2C[C@@H]1Oc1ccc2c(c1)CN(C1CCC(=O)NC1=O)C2=O (stereo partly drawn) [I-198, 3-(5-(((1S,2S)-1-(ethylamino)-2,3-dihydro-1H-inden-2-yl)oxy)-1-oxoisoindolin-2-yl)piperidine-2,6-dione] | 67 |
| CCN(CC)[C@H]1c2ccccc2C[C@@H]1Oc1ccc2c(c1)CN(C1CCC(=O)NC1=O)C2=O (stereo partly drawn) [I-199, 3-(5-(((1S,2S)-1-(diethylamino)-2,3-dihydro-1H-inden-2-yl)oxy)-1-oxoisoindolin-2-yl)piperidine-2,6-dione] | 71 |

From patent US11192877B2, “3-(5-hydroxy-1-oxoisoindolin-2-yl)piperidine-2,6-dione derivatives and uses thereof” (Novartis AG, priority 2018, dated 2021)
